The values below are quoted from earlier work in US9089677B2, “Transcutaneous multimodal delivery system (TMDS)” (The Regents of the University of California, priority 2011, dated 2015).

Read-outs that look alike come from different tables or passages of the source.

The subject of data set [1] is keratinocytes. The note with it: cited from earlier work.
Data set [2] relates to fibroblasts. The note with it: cited from earlier work.
In data set [3] the test system is normal rat kidney fibroblast (NRK, clone 49F). The note with it: NRK fibroblast proliferation; cited from earlier work.
The conditions of data set [4]: up to 3 mg/kg subcutaneously or intravenously in mice, rats, and monkey; cited from earlier work.
The conditions of data set [5]: diabetic rodent wounds; cited from earlier work.
The conditions of data set [6]: full thickness pig burn wounds; cited from earlier work.
The test system of data set [7] is fungal subspecies (e.g., Candida albicans or glabrata as well as Mucor and Aspergillus). The note with it: time kill-kinetic; cited from earlier work.
The test system of data set [8] is keratinocyte and fibroblast. The following applies: 10% solution; cited from earlier work.

For the molecule `NCc1ccc(S(N)(=O)=O)cc1` [MA, mafenide acetate], the figures for the “lowest dose with reported in vitro toxicity” value in data set [1] and in data set [2] were 0.85% and 0.1%, respectively.
As to “becaplermin: recombinant human PDGF (rhPDGF)-BB homodimer”, the half maximal activity in data set [3] is 0.5 ng/mL. The “acute toxicity and mortality” value in data set [4] is “no significant acute toxicity or any mortality”. In data set [5], the granulation tissue formation entry was “significantly increased granulation tissue formation” and the reepithelialization result is listed as “did not promote faster reepithelialization”. For the same molecule, in data set [6], the granulation tissue formation result is “significantly increased granulation tissue formation” and the reepithelialization result is reported as “did not promote faster reepithelialization”.
Regarding `O=[N+]([O-])[O-].[Ag+]` [silver nitrate], the “antimicrobial activity against fungal subspecies” value in data set [7] is on record as “activity for only C. albicans”. Also, in data set [8], the “keratinocyte and fibroblast toxicity” value is “keratinocyte and fibroblast toxicity”.
